Source: patent publication US9790169B2, “IDO inhibitors” (BRISTOL-MYERS SQUIBB COMPANY, priority 2015, dated 2017)

Target: human IDO1 (Homo sapiens, UniProt P14902)
Assay: Assessment of human IDO-1 inhibitory activity in HEK cells (human IDO1/HEK293 cells, kynurenine read-out with Ehrlich reagent, absorbance 490 nm)
Format: cell-based
Set-up: expressed in transfected cells
Conditions: HEK Human IDO-1 cellular assay
Procedure: Exemplary compounds were tested for inhibition of IDO activity.
Assessment of Human IDO-1 Inhibitory Activity in HEK Cells
HEK293 cells were transfected with a pCDNA-based mammalian expression vector harboring human IDO1 cDNA (NM 002164.2) by electroporation. They were cultured in medium (DMEM with 10% FBS) containing 1 mg/ml G418 for two weeks. Clones of HEK293 cells that stably expressed human IDO1 protein were selected and expanded for IDO inhibition assay.
The human IDO1/HEK293 cells were seeded at 10,000 cells per 50 μL per well with RPMI/phenol red free media contains 10% FBS in a 384-well black wall clear bottom tissue culture plate (Matrix Technologies LLC) 100 nL of certain concentration of compound was then added to each well using ECHO liquid handling systems. The cells were incubated for 20 hours in 37° C. incubator with 5% CO2.
The compound treatments were stopped by adding trichloroacetic acid (Sigma-Aldrich) to a final concentration at 0.2%. The cell plate was further incubated at 50° C. for 30 minute. The equal volume supernatant (20 μL) and 0.2% (w/v) Ehrlich reagent (4-dimethylaminobenzaldehyde, Sigma-Aldrich) in glacial acetic acid were mixed in a new clear bottom 384-well plate. This plate was then incubated at room temperature for 30 minute. The absorbance at 490 nm was measured on Envision plate reader.
Compound IC50 values were calculated using the counts of 500 nM of a reference standard treatment as one hundred percent inhibition, and counts of no compound but DMSO treatment as zero percent inhibition.

Chain of human IDO1 (P14902 whole entry): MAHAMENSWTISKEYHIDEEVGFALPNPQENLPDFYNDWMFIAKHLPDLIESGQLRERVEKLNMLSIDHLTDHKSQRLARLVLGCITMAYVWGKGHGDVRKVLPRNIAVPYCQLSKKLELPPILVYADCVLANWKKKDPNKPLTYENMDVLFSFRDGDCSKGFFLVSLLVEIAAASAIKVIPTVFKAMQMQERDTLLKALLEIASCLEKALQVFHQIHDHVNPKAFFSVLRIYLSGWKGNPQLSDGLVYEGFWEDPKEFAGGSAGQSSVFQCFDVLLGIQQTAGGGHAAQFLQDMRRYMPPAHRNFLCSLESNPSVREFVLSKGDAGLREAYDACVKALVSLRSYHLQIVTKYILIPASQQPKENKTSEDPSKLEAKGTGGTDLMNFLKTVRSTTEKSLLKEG

Row | Structure (SMILES) | IC50 [nM]
1 | CCOc1ncc(Nc2cc(C(C)CC(=O)O)ccc2N(CC(C)(C)O)C2CCCCC2)cn1 (single isomer, unassigned) [Example 54, 3-(4-(cyclohexyl(2-hydroxy-2-methylpropyl)amino)-3-((2-ethoxypyrimidin-5-yl)amino)phenyl)butanoic acid] | < 50
2 | CCCN(c1ccc([C@@H](COC)CC(=O)O)cc1Nc1ccc2nc(C)sc2c1)C1CCOCC1 (single isomer, unassigned) [Example 560] | < 50
3 | CC[C@@H](CC(=O)O)c1ccc(N2CCC[C@H]2C(C)(C)O)c(NC(=O)Nc2ccc(C)cc2)c1 (single isomer, unassigned) [Example 769] | > 50
4 | CC[C@H](CC(=O)O)c1ccc(N(CC(C)(C)O)C2CCCCC2)c(Nc2ccc(F)cc2)c1 (single isomer, unassigned) [Example 236] | < 50
5 | CCC(CC(=O)O)c1ccc(N(CC2CC2)C(C)C)c(Nc2ccc3c(c2)OC(F)(F)O3)c1 (single isomer, unassigned) [Example 715, 3-(4-((cyclopropylmethyl) (isopropyl)amino)-3-((2,2-difluorobenzo[d][1,3]dioxol-5-yl)amino)phenyl) pentanoic acid] | < 50
6 | CCN(c1ccc(C(CC(=O)O)c2ccccc2)cc1NC(=O)Nc1ccc(OC)cc1F)C1CCOCC1 (single isomer, unassigned) [Example 586, 3-(4-(ethyl(tetrahydro-2H-pyran-4-yl)amino)-3-(3-(2-fluoro-4-methoxyphenyl)ureido)phenyl)-3-phenylpropanoic acid] | > 50
7 | CCc1ccc(Nc2cc(C(CC)CC(=O)O)cc(F)c2N(CC(C)C)CC(C)C)cc1 (single isomer, unassigned) [Example 96, 3-(4-(diisobutylamino)-3-((4-ethylphenyl)amino)-5-fluorophenyl)pentanoic acid] | < 50
8 | COCC(CC(=O)O)c1ccc(N(CC2CC2)C2CCOCC2)c(NC(=O)Nc2ccc(Cl)cc2F)c1 (single isomer, unassigned) [Example 678, 3-(3-(3-(4-Chloro-2-fluorophenyl)ureido)-4-((cyclopropylmethyl)(tetrahydro-2H-pyran-4-yl)amino)phenyl)-4-methoxybutanoic acid] | > 50
9 | CC[C@H](CC(=O)O)c1ccc(N(CC2CC2)CC(C)(C)O)c(Nc2ccc(F)cc2)c1 (single isomer, unassigned) [Example 273] | < 50
10 | COCC(CC(=O)O)c1ccc(N(CC(C)C)C2CCOCC2)c(NC(=O)Nc2ccc(OC)cc2F)c1 (single isomer, unassigned) [Example 1221, 3-(3-(3-(2-Fluoro-4-methoxyphenyl)ureido)-4-(isobutyl(tetrahydro-2H-pyran-4-yl)amino)phenyl)-4-methoxybutanoic] | < 50
11 | CCN(c1ccc(C(CC(=O)O)c2ccccc2)cc1Nc1ccc2nc(C)sc2c1)C1CCOCC1 (single isomer, unassigned) [Example 579, 3-(4-(ethyl(tetrahydro-2H-pyran-4-yl)amino)-3-((2-methylbenzo[d]thiazol-6-yl)amino)phenyl)-3-phenylpropanoic acid] | > 50
12 | CC[C@@H](CC(=O)O)c1ccc(N(CC)C2CCOCC2)c(NC(=O)Nc2ccc(OC)cc2F)c1 (single isomer, unassigned) [Example 493] | > 50
13 | CC(C)CN(c1ccc(C(C)CC(=O)O)cc1Nc1nc2ccccc2o1)C1CCOCC1 (single isomer, unassigned) [Example 969, 3-(3-(Benzo[d]oxazol-2-ylamino)-4-(isobutyl(tetrahydro-2H-pyran-4-yl)amino)phenyl)butanoic acid] | > 50
14 | CCCN(c1ccc(C(CC)CC(=O)O)cc1Nc1ncc(CC)cn1)C1CCOCC1 (racemic) [Example 611, 3-(3-((5-Ethylpyrimidin-2-yl)amino)-4-(propyl(tetrahydro-2H-pyran-4-yl)amino)phenyl)pentanoic acid] | < 50

The next lines start with the values.

Row | IC50 [nM] | Structure (SMILES)
15 | < 50 | CCCN(CC1CC1)c1ccc(C(CC)CC(=O)O)cc1Nc1ccc2c(c1)OC(F)(F)O2 (single isomer, unassigned) [Example 659, 3-(4-((cyclopropylmethyl) (propyl)amino)-3-((2,2-difluorobenzo[d][1,3]dioxol-5-yl)amino)phenyl)pentanoic acid]
16 | < 5 | CCC(CC(=O)O)c1cc(F)c(N(CC(C)C)CC(C)C)c(Nc2ccc(Cl)cc2)c1 (single isomer, unassigned) [Example 99, 3-(3-((4-chlorophenyl)amino)-4-(diisobutylamino)-5-fluorophenyl)pentanoic acid]
17 | < 5 | CC(C)CN(c1ccc(C(CC(=O)O)C2CC2)cc1NC(=O)Nc1ccc(Cl)cc1F)C1CCOCC1 (single isomer, unassigned) [Example 1199 Enantiomer 1, 3-(3-(3-(4-Chloro-2-fluorophenyl)ureido)-4-(isobutyl(tetrahydro-2H-pyran-4-yl)amino)phenyl)-3-cyclopropylpropanoic acid]
18 | < 5 | CCOc1ccc(NC(=O)Nc2cc(C(COC)CC(=O)O)cc(F)c2N(CC(C)C)C2CCCCC2)cc1 (single isomer, unassigned) [Example 1160, 3-(4-(cyclohexyl(isobutyl)amino)-3-(3-(4-ethoxyphenyl)ureido)-5-fluorophenyl)-4-methoxybutanoic acid]
19 | < 5 | CCC(CC(=O)O)c1ccc(N(CC2CC2)C2CCOCC2)c(Nc2ccc(C#N)cc2)c1 (single isomer, unassigned) [Example 706, 3-(3-((4-cyanophenyl)amino)-4-((cyclopropylmethyl) (tetrahydro-2H-pyran-4-yl)amino)phenyl)pentanoic acid]
20 | < 5 | CC[C@@H](CC(=O)O)c1ccc(N(CC(C)(C)O)C2CCOCC2)c(Nc2ccc(Cl)cc2)c1 (single isomer, unassigned) [Example 198]
21 | < 5 | CC[C@H](CC(=O)O)c1ccc(N(CC(C)(C)O)C2CCCCC2)c(Nc2ccc(Cl)cc2)c1 (single isomer, unassigned) [Example 242]
22 | < 5 | CCC(CC(=O)O)c1cc(F)c(N(CC(C)C)CC(C)C)c(NC(=O)Cc2ccc(C)cc2F)c1 (single isomer, unassigned) [Example 1094 E2]
23 | < 5 | CCC(CC(=O)O)c1ccc(N(CC(C)C)C2CCCCC2)c(Nc2ccc(Cl)cc2)c1 (single isomer, unassigned) [Example 308, 3-(3-((4-chlorophenyl)amino)-4-(cyclohexyl (isobutyl)amino)phenyl) pentanoic acid]
24 | < 5 | COCC(CC(=O)O)c1cc(F)c(N(CC(C)C)C2CCCCC2)c(NC(=O)Nc2cc(C)on2)c1 (single isomer, unassigned) [Example 1167, 3-(4-(cyclohexyl(isobutyl)amino)-3-fluoro-5-(3-(5-methylisoxazol-3-yl)ureido)phenyl)-4-methoxybutanoic acid]
25 | < 5 | CC[C@@H](CC(=O)O)c1ccc(N(CC)C2CCOCC2)c(Nc2cnc(OCC3CC3)nc2)c1 (single isomer, unassigned) [Example 480]
26 | < 5 | CCC(CC(=O)O)c1cc(F)c(N(CC(C)C)CC(C)C)c(Nc2ccc3c(c2)OC(F)(F)O3)c1 (single isomer, unassigned) [Example 101, 3-(3-((2,2-difluorobenzo [d][1,3]dioxol-5-yl)amino)-4-(diisobutylamino)-5-fluorophenyl)pentanoic acid]
